Four molecules from publication PMC6789782, “Safety Pharmacological Evaluation of the Coffee Component, Caffeoylquinic Acid, and Its Metabolites, Using Ex Vivo and In Vitro Profiling Assays” (Pharmaceuticals, 2019) can be followed below.

Structures are written as SMILES. Where “and” joins values, the source holds several entries; their conditions need not be identical. Identical values can stand only once. Like-named read-outs stand apart in the source and are kept apart here.

Broadly, the inhibition is the relative decrease from the control value, in per cent. A word on the % Inhibition: it is the change of the read-out against control, counted positive when it falls.

Series [1] has as its system isolated perfused guinea pig heart. Put plainly: Langendorff perfused heart assay. Particulars: for % change in LV dP/dt max from pre-application / % change in LVPSP from pre-application: mean ± SD, n = 3. As to the method:
After injection of heparin sodium (100 unit/body, AY Pharmaceuticals Co., Ltd.) into the jugular vein, the animals were exsanguinated. […] A stainless-steel cannula was inserted in the aorta, followed by attachment to the Langendorff apparatus (Physio-Tech Co., Ltd., Tokyo, Japan). The attached heart was perfused with KH solution at 37.0 ± 0.2 °C. Before use, the KH solution was aerated by a gas mixture (95%O2 + 5%CO2) for 30 min or longer. The perfusion pressure was maintained at 70 mmHg.
DMSO solutions at 1, 10, and 100 mM were diluted 1000-fold with the KH solution to make test solutions of 1, 10, and 100 μM, respectively. The test solutions were cumulatively applied at a flow rate of 20 mL/min for 10 min with each concentration.
An ECG signal was recorded using electrodes fixed on the ventricular apex (+), and a stainless-steel cannula was inserted in the aorta (−), and LVP was recorded from the balloon catheter placed in the left ventricle. The ECG signals were amplified with an amplifier (DAM50; World Precision Instruments, Inc.) and LVPs were monitored with a Pressure Monitor 4 (Living Systems Instrumentation). Both of the waveforms were recorded with computer software (1000 Hz; iox2 and ecgAUTO3; emka Technologies).
Before measurement, the in-balloon pressure was adjusted so that the diastolic blood pressure would be in the range of 0 to 10 mmHg. The cardiac parameters, such as HR, PR interval, QRS duration, QT interval, QTc interval (Fridericia’s formula: QTc = QT/RR^1/3), LVPSP, left-ventricular end diastolic pressure (LVEDP), and LV dP/dt max, were measured.
Data are expressed as mean (± SD). The measured % changes from the pre-application value were used for analyses. Williams test was carried out between the solvent-control and test compound. Student’s t-test was carried out between the solvent-control and positive-control. […] The data from the solvent control and drug groups were tested by F test for homogeneity of variance. F test was performed at the significance level of 5%. When the variances were homogeneous, Student’s t-test was subsequently performed. When the variances were nonhomogeneous, Welch t-test was selected.

In the next series the test system is rat hippocampal slices. Put plainly: Electrophysiological assay of hippocampal slices, epileptiform discharge (ED) recording. Conditions: ± SEM. As for the experimental part:
A hippocampal slice was placed on the multielectrode array (200 μm distant electrodes) to ensure the multi-electrode grid covered the major surface of the slice. […]
ED frequency (in Hz) was determined as follows: raw data were filtered with a Low Pass filter (Butterworth second order filter) set to 20 Hz. ED number was monitored on-line (epileptiform event amplitudes had to be higher than 15 μV to be counted; a dead time of 200 ms was applied for each epileptiform event detected). ED frequency was averaged using 30-s time intervals. Results are presented as mean frequency of ED for the last 2 min of each condition (± SEM).

In another series the target is Cyclooxygenase COX-1 (Homo sapiens, UniProt P23219). The series is described as follows: In vitro profiling, functional assay. In kind it is biochemical. As to the method: (§1) Binding and functional assays of CGAs with the proteins known to be pharmacological targets related to the CVS, CNS, and GI functions were conducted. […] In the binding assay, we measured the radiation activity of the solution containing filtered proteins that bound to the tested compound or high-affinity ligand, while in the functional assays, we measured the reaction product. The ability of the test compound to interact with the tested targets was measured as the inhibition of ligand binding to the target or reaction product production (% inhibition).
Cyclooxygenase COX-1, sequence (P23219 24-599): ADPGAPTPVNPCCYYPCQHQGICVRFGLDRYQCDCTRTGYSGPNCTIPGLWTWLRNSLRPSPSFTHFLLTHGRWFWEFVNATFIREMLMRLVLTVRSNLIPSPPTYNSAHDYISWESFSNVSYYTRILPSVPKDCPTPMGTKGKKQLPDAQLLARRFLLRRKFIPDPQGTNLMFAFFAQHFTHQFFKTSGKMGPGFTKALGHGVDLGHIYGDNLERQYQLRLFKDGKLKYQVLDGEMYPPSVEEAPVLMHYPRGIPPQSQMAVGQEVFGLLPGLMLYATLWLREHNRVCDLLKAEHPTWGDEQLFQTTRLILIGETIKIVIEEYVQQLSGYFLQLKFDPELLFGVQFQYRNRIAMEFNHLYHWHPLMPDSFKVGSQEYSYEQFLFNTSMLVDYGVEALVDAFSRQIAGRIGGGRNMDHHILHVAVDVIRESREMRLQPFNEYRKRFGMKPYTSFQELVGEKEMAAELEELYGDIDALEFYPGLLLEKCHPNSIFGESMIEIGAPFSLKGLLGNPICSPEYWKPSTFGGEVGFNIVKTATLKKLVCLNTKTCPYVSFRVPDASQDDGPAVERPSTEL

A further series has as its target T1, Cyclooxygenase COX-2 (Homo sapiens, UniProt P35354).
T1 sequence (P35354 18-604): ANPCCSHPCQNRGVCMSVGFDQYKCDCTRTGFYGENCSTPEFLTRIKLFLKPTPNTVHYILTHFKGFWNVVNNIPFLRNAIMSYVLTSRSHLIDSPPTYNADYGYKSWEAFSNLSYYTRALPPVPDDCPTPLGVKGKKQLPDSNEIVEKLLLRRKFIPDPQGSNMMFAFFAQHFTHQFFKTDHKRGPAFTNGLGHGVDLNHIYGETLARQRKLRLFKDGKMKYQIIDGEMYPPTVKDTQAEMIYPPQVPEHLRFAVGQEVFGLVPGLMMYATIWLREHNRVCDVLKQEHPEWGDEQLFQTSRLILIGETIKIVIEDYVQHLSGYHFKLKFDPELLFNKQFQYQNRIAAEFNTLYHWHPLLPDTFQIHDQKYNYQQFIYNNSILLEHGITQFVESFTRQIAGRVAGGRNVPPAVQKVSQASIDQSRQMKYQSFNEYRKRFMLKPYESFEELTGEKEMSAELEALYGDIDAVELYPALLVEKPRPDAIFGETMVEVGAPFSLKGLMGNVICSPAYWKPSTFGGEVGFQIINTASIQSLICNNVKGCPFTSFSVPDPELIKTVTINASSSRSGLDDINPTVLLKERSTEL
The series is described as follows: In vitro profiling, functional assay. In kind it is biochemical. As to the method:
as §1

The next series addresses T2, Monoamine Oxidase MAO-A (Homo sapiens, UniProt P21397).
T2 sequence (P21397 1-527): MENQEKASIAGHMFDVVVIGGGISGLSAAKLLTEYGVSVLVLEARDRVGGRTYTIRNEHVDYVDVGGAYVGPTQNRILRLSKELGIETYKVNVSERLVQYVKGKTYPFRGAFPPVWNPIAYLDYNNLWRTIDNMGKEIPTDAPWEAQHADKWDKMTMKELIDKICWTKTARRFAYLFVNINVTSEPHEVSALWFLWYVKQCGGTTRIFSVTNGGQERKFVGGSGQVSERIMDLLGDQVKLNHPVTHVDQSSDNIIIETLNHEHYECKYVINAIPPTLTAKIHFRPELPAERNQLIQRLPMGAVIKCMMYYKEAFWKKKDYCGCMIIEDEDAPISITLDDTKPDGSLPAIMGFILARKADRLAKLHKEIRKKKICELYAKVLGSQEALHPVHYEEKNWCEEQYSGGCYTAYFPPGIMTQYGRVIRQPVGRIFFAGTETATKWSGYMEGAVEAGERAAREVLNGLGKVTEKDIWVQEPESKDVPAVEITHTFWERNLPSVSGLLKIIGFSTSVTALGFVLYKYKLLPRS
The series is described as follows: In vitro profiling, functional assay. In kind it is biochemical. As for the experimental part: as §1

For series [2], the target named is T3, Peptidase, CTSG (Cathepsin G) (Homo sapiens, UniProt P08311).
T3 sequence (P08311 21-255): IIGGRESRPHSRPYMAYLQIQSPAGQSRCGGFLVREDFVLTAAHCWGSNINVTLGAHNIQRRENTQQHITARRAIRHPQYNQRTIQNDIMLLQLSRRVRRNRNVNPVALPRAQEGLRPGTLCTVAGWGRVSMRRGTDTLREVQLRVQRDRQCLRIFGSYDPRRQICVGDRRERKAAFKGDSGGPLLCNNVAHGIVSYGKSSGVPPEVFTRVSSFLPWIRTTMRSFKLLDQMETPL
The series is described as follows: In vitro profiling, functional assay. In kind it is biochemical. As for the experimental part:
as §1

The subject of the next series is Phosphodiesterase PDE4. The series is described as follows: In vitro profiling, functional assay. In kind it is biochemical, human. Conditions: 30 µM. As to the method: as §1
Setting [3] is: 10 µM compound, co-exposure with 50 μM 4-AP.
The mark [4] stands for this setting: 30 µM, Cyclooxygenase COX-1, read-out: % Inhibition.
The mark [5] stands for this setting: 30 µM, Monoamine Oxidase MAO-A, read-out: % Inhibition.
The mark [6] stands for this setting: 30 µM, Peptidase, CTSG (Cathepsin G), read-out: % Inhibition.

In the case of `O=C(O)/C=C/c1ccc(O)c(O)c1` [CA, caffeic acid], the “% change in LV dP/dt max from pre-application” value in series [1] (10 μM) is −6.5 ± 1.6%; in series [1] (100 μM) it was −8.8 ± 0.8%. The figures for the “% change in LVPSP from pre-application” value in series [1] (10 μM) and in series [1] (100 μM) were −4.3 ± 0.8% and −6.2 ± 0.9%, respectively. Also, the ED rate in the series with rat hippocampal slices (setting [3]) came out at 0.55 ± 0.07 Hz; in the series on rat hippocampal slices (follow-up test, 1 µM compound, co-exposure with 4-AP) it was 0.35 ± 0.03 Hz. Further, the inhibition at 30 µM at Cyclooxygenase COX-1 stood at 6%; at Cyclooxygenase COX-2, 9%; against Monoamine Oxidase MAO-A, 0%. Further, the “% Inhibition” value in series [2] (30 µM, Peptidase, CTSG (Cathepsin G)) is 1%; with Phosphodiesterase PDE4, 4%.
As to `COc1cc(/C=C/C(=O)O)ccc1O` [FA, ferulic acid], the “Effect on LVP” value in series [1] (at 100 μM) is on record as “did not affect”. In series [1] (until 100 µM), the “Change in ECG parameters compared to solvent control” value is on record as “no significant change”. The molecule also registered an ED rate in the series on rat hippocampal slices (setting [3]) of 0.41 ± 0.04 Hz. Also, the inhibition at 30 µM was 5% on Cyclooxygenase COX-1, 14% on Cyclooxygenase COX-2, 5% at Monoamine Oxidase MAO-A and -2% in series [2]. Moreover, the “% Inhibition” value in the series with Phosphodiesterase PDE4 was 7%.
The molecule `COc1cc(/C=C/C(=O)O[C@H]2C[C@@](O)(C(=O)O)C[C@H](O)[C@@H]2O)ccc1O` [5-FQA, 5-O-feruloylquinic acid] returned an ED rate with rat hippocampal slices (setting [3]) of 0.46 ± 0.05 Hz. Further, the inhibition at 30 µM at Cyclooxygenase COX-1 (setting [4]) worked out at 11%; at Cyclooxygenase COX-2 (30 µM, Cyclooxygenase COX-2, read-out: % Inhibition), 18%; at Monoamine Oxidase MAO-A (setting [5]), 0%; in series [2] (setting [6]), 2%. For the same molecule, in the series with Phosphodiesterase PDE4, the “% Inhibition” value was 2%.
In the case of `O=C(/C=C/c1ccc(O)c(O)c1)O[C@H]1C[C@@](O)(C(=O)O)C[C@H](O)[C@@H]1O` [5-CQA, 5-O-caffeoylquinic acid], the “% change in LV dP/dt max from pre-application” value in series [1] (100 μM) was −12.0 ± 6.2% and −12%. In addition, the “% change in LVPSP from pre-application” value in series [1] (100 μM) is recorded as −8.5 ± 6.2%. This molecule returned an ED rate in the series on rat hippocampal slices (setting [3]) of 0.38 ± 0.04 Hz. Moreover, the inhibition at 30 µM at Cyclooxygenase COX-1 (setting [4]) is 2%; against Cyclooxygenase COX-2, 7%; on Monoamine Oxidase MAO-A (setting [5]), -5%; in series [2] (setting [6]) it was 8%. In the series with Phosphodiesterase PDE4, the “% Inhibition” value is −6%.
